Values quoted from earlier work, collected in patent US8067598B2, “Heterofused piperidines as orexin antagonists” (Hoffman-La Roche Inc., priority 2007, dated 2011).
No end group written: not given here.

Tested on: rat
Conditions: icv administration (Piper et al., 2000); cited from earlier work

## OX-A: orexin-A/hypocretin1 hypothalamic neuropeptide, 33 amino acids; agonist of OX1R and OX2R (QPLPDCCRQKTCSCRLYELLHGAGNHAAGILTL; ends and bridges not checked; cysteine pairing not given here; UniProt O43612 34-66, looked up)
  reduction of total REM sleep: 84%
